Results published in patent publication US9732067B2, “Compounds and methods for activating the apoptotic arm of the unfolded protein response” (University of Kansas, priority 2012, dated 2017).
Several values for one entry are separate records, joined by “and”; a condition that tells them apart may be missing. Equal entries are not always repeated. Where two headings read alike, the source gives them in different places.

Legend:
UMSCC23 = test: Proliferation, UMSCC23; type: cell-based; settings: Homo sapiens, 24 hours, average of three experiments
Experimental: (§1) To determine whether ML291 could reduce the proliferation of malignant cells, a panel of OSCC (UMSCC23, A253, HN6, HN12, HN30, H460/T800) and ovarian cancer (RMG-1, TOV112D, A2780 and SKOV3) cell lines, were treated with increasing doses (0.15-20 μM) of ML291 for 24 hours (FIGS. 3A and 3B).

−/− MEF KO CHOP = test: Proliferation / cytotoxicity (ATPLite) in MEF with CHOP KO; type: cell-based; settings: Mus musculus
Experimental: (§2) Several of the analogs derived from these changes were evaluated in secondary assays as they met the preliminary probe criteria for UPR-CHOP and UPR-XBP1 activity. Select compounds were assessed in a dose response manner for the ability to suppress proliferation in both the CHOP wild-type and CHOP knockout murine embryonic fibroblasts (−/− MEF KO CHOP)(Table 2).
(§3) It was determined whether ML291 and ML291 congeners would induce cell death (cytotoxicity as measured by ATPLite®, which measures production of ATP from living cells) in cells where these pathways are operant, but not activate them in the absence of the pathways.

[1] = Aqueous solubility in pION's buffer; type: physicochemical
Excerpt: Solubility was highest at the physiological of pH 7.4.

RMG-1 (ovarian) = test: Proliferation, RMG-1; type: cell-based; settings: 24 hours
Experimental: as §1

TOV112D (ovarian) = test: Proliferation, TOV112D; type: cell-based; settings: Homo sapiens, 24 hours
Experimental: as §1

A253 = test: Proliferation, A253; type: cell-based; settings: Homo sapiens, 24 hours, average of three experiments
Experimental: as §1

Plasma stability, human = type: in vitro ADME
Excerpt: (§4) Plasma stability is a measure of the stability of small molecules and peptides in plasma and is an important parameter, which strongly can influence the in vivo efficacy of a test compound. Drug candidates are exposed in plasma to enzymatic processes (proteinases, esterases), and they can undergo intramolecular rearrangement or bind irreversibly (covalently) to proteins. ML291 appeared to be moderately stable in human plasma (˜84% remaining), but less so in mouse plasma (˜52% remaining).

HN30 = test: Proliferation, HN30; type: cell-based; settings: 24 hours, average of three experiments
Experimental: as §1

HN12 = test: Proliferation, HN12; type: cell-based; settings: 24 hours, average of three experiments
Experimental: as §1

[2] = Plasma protein binding, mouse; type: in vitro ADME
Excerpt: (§5) Plasma protein binding is a measure of a drug's efficiency to bind to the proteins within blood plasma. The less bound a drug is, the more efficiently it can traverse cell membranes or diffuse. Highly plasma protein bound drugs are confined to the vascular space, thereby having a relatively low volume of distribution. In contrast, drugs that remain largely unbound in plasma are generally available for distribution to other organs and tissues. ML291 was highly plasma protein bound to human plasma proteins (>99%), though it is somewhat less tightly bound to mouse plasma proteins (˜84%).

Plasma stability, mouse = type: in vitro ADME
Excerpt: as §4

[3] = Tolerability of ML291 in mice; type: in vivo
[4] = Plasma protein binding, human; type: in vitro ADME
Excerpt: as §5

MEF with wild-type CHOP = test: Proliferation / cytotoxicity (ATPLite) in MEF with wild-type CHOP; type: cell-based, mouse
Experimental: as §2, §3

A253-CHOP-luc xenografts = test: Bioluminescent imaging of A253-CHOP-luc xenografts; type: in vivo, SCID mice; settings: 24 hours after 10 mg/kg (IP)
[5] = target: T1, dopamine transporter (DAT) (Homo sapiens, UniProt Q01959); test: Radio-ligand binding panel (Ricerca), 67 GPCRs, ion channels and transporters
T1 construct: Ricerca Biosciences LLC (Bothell, Wash.)
T1 sequence (Q01959 whole entry, species assumed): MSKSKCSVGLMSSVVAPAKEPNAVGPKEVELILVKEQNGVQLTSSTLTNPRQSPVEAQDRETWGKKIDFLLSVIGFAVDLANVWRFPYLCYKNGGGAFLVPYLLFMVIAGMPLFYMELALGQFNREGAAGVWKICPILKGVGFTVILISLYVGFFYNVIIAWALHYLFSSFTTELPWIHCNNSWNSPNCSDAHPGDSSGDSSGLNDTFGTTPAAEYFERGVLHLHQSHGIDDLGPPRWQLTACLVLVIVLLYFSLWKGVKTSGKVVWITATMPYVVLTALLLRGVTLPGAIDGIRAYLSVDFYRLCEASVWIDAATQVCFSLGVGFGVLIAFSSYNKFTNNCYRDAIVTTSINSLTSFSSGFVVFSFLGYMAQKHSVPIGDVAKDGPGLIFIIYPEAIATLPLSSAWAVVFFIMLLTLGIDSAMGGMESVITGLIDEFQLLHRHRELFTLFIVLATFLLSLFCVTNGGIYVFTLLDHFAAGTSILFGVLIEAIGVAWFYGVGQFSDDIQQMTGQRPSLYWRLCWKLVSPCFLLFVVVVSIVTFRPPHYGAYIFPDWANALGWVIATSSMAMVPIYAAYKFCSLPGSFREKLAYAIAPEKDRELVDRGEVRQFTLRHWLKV
Experimental: ML291 was submitted to Ricerca Biosciences LLC (Bothell, Wash.) to evaluate it in radio-ligand binding assays to determine activity against a panel of 67 GPCRs, ion channels and transporters at 10 μM.

A2780 (ovarian) = test: Proliferation, A2780; type: cell-based; settings: Homo sapiens, 24 hours
Experimental: as §1

[6] = system: panel of OSCC and ovarian cancer cell lines; test: Proliferation, panel of OSCC and ovarian cancer cell lines; type: cell-based; settings: 24 hours, 0.15-20 μM; read-out: IC50 values in eight of the ten cell lines
Experimental: as §1

SKOV3 = test: Proliferation, SKOV3; type: cell-based; settings: Homo sapiens, SK-OV-3, 24 hours
Experimental: as §1

[7] = system: CHOP transcripts (apoptotic) compared to spliced XBP1 (adaptive); test: qRT-PCR transcription profile in OSCC cell lines UMSCC23, A253 and HN12; type: cell-based; settings: four hours treatment
Excerpt: While ML291 robustly and selectively activated the apoptotic (CHOP) arm of UPR in the engineered luciferase reporter CHO-K1 cells, while not activating reporter under the control of the adaptive arm (XBP1) promoters, direct confirmation of the selective activation of genes and pathways on the apoptotic UPR arm in a biologically relevant cell or cell line was needed. To determine whether or not ML291 could selectively activate the apoptotic (CHOP) arm of the UPR, relevant oral squamous cell carcinoma cell lines, UMSCC23, A253 and HN12, were treated with ML291 for four hours. The activation/induction of associated genes along the UPR sub-pathways were measured by quantitative real-time reverse-transcription PCR (qRT-PCR) analysis of cDNA pools generated from whole cell lysates. […] Furthermore, the simultaneous induction of the CHOP down stream target GADD34, but not the DNA excision and repair gene ERCC1 indicated ML291 was activating CHOP via the UPR and not DNA damage.

HN6 = test: Proliferation, HN6; type: cell-based; settings: HN-6, 24 hours, average of three experiments
Experimental: as §1

**Q.** Which IC50 (UMSCC23) does the source give for O=C(Nc1ccc(S(=O)(=O)N2CCC(Cl)CC2)cc1)c1ccc([N+](=O)[O-])o1 [ML291, N-(4-((4-chloropiperidin-1-yl)sulfonyl)phenyl)-5-nitrofuran-2-carboxamide] here?
**A.** 7.31 ± 1.68 µM

**Q.** And the EC50 (−/− MEF KO CHOP; Table 2, mean of replicates, EC50 and μM, read-out: Proliferation −/− MEF KO CHOP)?
**A.** > 20 µM

**Q.** What about the IC50 (−/− MEF KO CHOP; Table 5, MEF, ATPLite) of the same compound?
**A.** > 20 µM

**Q.** What about the EC50 (−/− MEF KO CHOP; read-out: EC50 on −/− MEF knockout cells) of the same compound?
**A.** > 20 µM

**Q.** And the “solubility over its EC50” value ([1]; EC50 762 nM)?
**A.** 11-13 fold

**Q.** What about the solubility ([1]; aqueous buffer (pION's buffer), aqueous buffer, pH range of 5.2-7.4, read-out: solubility in aqueous buffers) of the same compound?
**A.** 8.7 µM to 9.7 µM and 3.6 µg/mL to 4 µg/mL

**Q.** And the “Aqueous Solubility in pION's buffer” value ([1]; pH 5.0)?
**A.** 3.6 μg/mL and 8.7 μM

**Q.** And the “Aqueous Solubility in pION's buffer” value ([1]; pH 6.2)?
**A.** 3.8 μg/mL and 9.2 μM

**Q.** And the “Aqueous Solubility in pION's buffer” value ([1]; pH 7.4)?
**A.** 4.0 μg/mL and 9.7 μM

**Q.** What about the IC50 (RMG-1 (ovarian)) of the same compound?
**A.** > 20 µM

**Q.** And the IC50 (TOV112D (ovarian))?
**A.** 6.59 µM

**Q.** What about the IC50 (A253) of the same compound?
**A.** 17.2 ± 3.64 µM

**Q.** And the “remaining in human plasma” value (Plasma stability, human)?
**A.** ~84%

**Q.** What about the “Plasma Stability (% Remaining at 3 hours @ 37° C.)” value (Plasma stability, human; Human) of the same compound?
**A.** 85.58%

**Q.** What about the IC50 (HN30) of the same compound?
**A.** 8.95 ± 1.06 µM

**Q.** What about the IC50 (HN12) of the same compound?
**A.** 7.17 ± 0.69 µM

**Q.** And the “bound to mouse plasma proteins” value [2]?
**A.** ~84%

**Q.** And the fraction unbound at 1 µM ([2]; plasma, Mouse, 1 μM, read-out: Plasma Protein Binding (% Bound) (converted))?
**A.** 0.155

**Q.** What about the fraction unbound at 10 µM ([2]; plasma, Mouse, 10 μM, read-out: Plasma Protein Binding (% Bound) (converted)) of the same compound?
**A.** 0.157

**Q.** And the “remaining in mouse plasma” value (Plasma stability, mouse)?
**A.** ~52%

**Q.** What about the “Plasma Stability (% Remaining at 3 hours @ 37° C.)” value (Plasma stability, mouse; Mouse) of the same compound?
**A.** 52.31%

**Q.** And the “weight, physical appearance, disposition or activity versus controls” value ([3]; 10 mg/kg IP daily, preliminary)?
**A.** no differences in weight, physical appearance, disposition or activity

**Q.** And the side effects ([3]; 10 mg/kg bi-weekly for four weeks)?
**A.** did not display any obvious side effects

**Q.** What about the “bound to human plasma proteins” value [4] of the same compound?
**A.** > 99%

**Q.** And the fraction unbound at 1 µM ([4]; plasma, Human, 1 μM, read-out: Plasma Protein Binding (% Bound) (converted))?
**A.** 0.0025

**Q.** And the fraction unbound at 10 µM ([4]; plasma, Human, 10 μM, read-out: Plasma Protein Binding (% Bound) (converted))?
**A.** 0.0037

**Q.** And the “shift of potency in MEF wild-type CHOP versus CHO-K1 cell reporter assays” value (MEF with wild-type CHOP)?
**A.** ~6 fold

**Q.** What about the EC50 (MEF with wild-type CHOP; Mus musculus, Table 2, mean of replicates, EC50 and μM, read-out: Proliferation MEF wt CHOP) of the same compound?
**A.** 4.77 ± 1.05 µM

**Q.** What about the IC50 (MEF with wild-type CHOP; Mus musculus, Table 5, MEF, ATPLite) of the same compound?
**A.** 4.77 ± 1.05 µM

**Q.** And the EC50 (MEF with wild-type CHOP; Mus musculus, read-out: CHOP wild-type EC50 (MEF))?
**A.** 4.77 µM

**Q.** And the EC50 (MEF with wild-type CHOP; read-out: CHOP wild-type EC50 (MEF))?
**A.** ~4.8 µM

**Q.** And the luminescence of xenografts (A253-CHOP-luc xenografts)?
**A.** increased luminescence

**Q.** And the inhibition at 10 µM [5]?
**A.** 68%

**Q.** What about the IC50 (A2780 (ovarian)) of the same compound?
**A.** 2.16 µM

**Q.** And the IC50 [6]?
**A.** 1.6 to 18.9 µM

**Q.** What about the IC50 (SKOV3) of the same compound?
**A.** 1.59 µM

**Q.** What about the “selectivity of CHOP transcripts compared to spliced XBP1” value [7] of the same compound?
**A.** 5 fold

**Q.** And the IC50 (HN6)?
**A.** > 20 µM
